In data set [1] the target is T1, ATP-dependent translocase ABCB1 (Homo sapiens, UniProt P08183). In words: TP_TRANSPORTER: transepithelial transport (basal to apical) in MDR1-expressing MDCKII cells. The data set is classed as functional, cell-based. Particulars: dog, mdck-ii.
Data set [2] addresses T2, MDR1 (P-glycoprotein, ABCB1) (Homo sapiens, UniProt P08183). The experiment in a line: TP_TRANSPORTER: increase in Calcein-AM intracellular accumulation (Calcein-AM: ? uM, Metergoline: 100 uM) in MDR1-expressing MDCKII cells. The class given is functional, cell-based, MDCK-II. Conditions: dog, probe Calcein-AM.
In data set [3] the target is T1, ATP-dependent translocase ABCB1. The experiment in a line: TP_TRANSPORTER: increase in Calcein-AM intracellular accumulation (Calcein-AM: ? uM, Selegiline: 100 uM) in MDR1-expressing MDCKII cells. The class given is functional, cell-based. Particulars: dog, mdck-ii.
Data set [4] has the same target. The experiment in a line: TP_TRANSPORTER: increase in Calcein-AM intracellular accumulation (Calcein-AM: ? uM, Sumatriptan: 100 uM) in MDR1-expressing MDCKII cells. Particulars: dog, mdck-ii. The class given is functional, cell-based.
For data set [5], the target named is T2, MDR1 (P-glycoprotein, ABCB1). The experiment in a line: TP_TRANSPORTER: increase in Calcein-AM intracellular accumulation (Calcein-AM: ? uM, […]: 100 uM) in MDR1-expressing MDCKII cells. The class given is functional, cell-based, MDCK-II. Conditions: dog, probe Calcein-AM.
Data set [6] shares this target. The experiment in a line: TP_TRANSPORTER: increase in Calcein-AM intracellular accumulation (Calcein-AM: ? uM, Doxepin: 100 uM) in MDR1-expressing MDCKII cells. The class given is functional, cell-based, MDCK-II. Particulars: dog, probe Calcein-AM.
Data set [7] has the same target. In words: TP_TRANSPORTER: increase in Calcein-AM intracellular accumulation (Calcein-AM: ? uM, Buspirone: 100 uM) in MDR1-expressing MDCKII cells. The data set is classed as functional, cell-based, MDCK-II. Particulars: dog, probe Calcein-AM.
The target in data set [8] is T1, ATP-dependent translocase ABCB1. The experiment in a line: TP_TRANSPORTER: increase in Calcein-AM intracellular accumulation (Calcein-AM: ? uM, Nitrazepam: 100 uM) in MDR1-expressing MDCKII cells. The class given is functional, cell-based. Particulars: dog, mdck-ii.
Data set [9] shares this target. The experiment in a line: TP_TRANSPORTER: increase in Calcein-AM intracellular accumulation (Calcein-AM: ? uM, Ketamine: 100 uM) in MDR1-expressing MDCKII cells. The class given is functional, cell-based. Conditions: dog, mdck-ii.
The target of data set [10] is T2, MDR1 (P-glycoprotein, ABCB1). In words: TP_TRANSPORTER: increase in Calcein-AM intracellular accumulation (Calcein-AM: ? uM, Maprotiline: 100 uM) in MDR1-expressing MDCKII cells. Particulars: dog, probe Calcein-AM.
The target in data set [11] is T1, ATP-dependent translocase ABCB1. In words: TP_TRANSPORTER: increase in Calcein-AM intracellular accumulation (Calcein-AM: ? uM, Meprobamate: 100 uM) in MDR1-expressing MDCKII cells. Particulars: dog, mdck-ii. The data set is classed as functional, cell-based.
For data set [12], the target named is T2, MDR1 (P-glycoprotein, ABCB1). The experiment in a line: TP_TRANSPORTER: increase in Calcein-AM intracellular accumulation (Calcein-AM: ? uM, Desipramine: 100 uM) in MDR1-expressing MDCKII cells. Particulars: dog, probe Calcein-AM. The data set is classed as functional, cell-based, MDCK-II.
Data set [13] deals with T1, ATP-dependent translocase ABCB1. The experiment in a line: TP_TRANSPORTER: increase in Calcein-AM intracellular accumulation (Calcein-AM: ? uM, Carbamazepine: 100 uM) in MDR1-expressing MDCKII cells. The class given is functional, cell-based. Conditions: dog, mdck-ii.
For data set [14], the target named is T2, MDR1 (P-glycoprotein, ABCB1). In words: TP_TRANSPORTER: increase in Calcein-AM intracellular accumulation (Calcein-AM: ? uM, Fluvoxamine: 100 uM) in MDR1-expressing MDCKII cells. The class given is functional, cell-based, MDCK-II. Particulars: dog, probe Calcein-AM.
Data set [15] shares this target. The experiment in a line: TP_TRANSPORTER: increase in Calcein-AM intracellular accumulation (Calcein-AM: ? uM, Amitriptyline: 100 uM) in MDR1-expressing MDCKII cells. Conditions: dog, probe Calcein-AM. The data set is classed as functional, cell-based, MDCK-II.
Data set [16] concerns the target T1, ATP-dependent translocase ABCB1. In words: TP_TRANSPORTER: increase in Calcein-AM intracellular accumulation (Calcein-AM: ? uM, Imipramine: 100 uM) in MDR1-expressing MDCKII cells. Particulars: dog, mdck-ii. The data set is classed as functional, cell-based.
The target is the same in data set [17]. In words: TP_TRANSPORTER: increase in Calcein-AM intracellular accumulation (Calcein-AM: ? uM, Flumazenil: 100 uM) in MDR1-expressing MDCKII cells. Particulars: dog, mdck-ii. The class given is functional, cell-based.
For data set [18] the target is unchanged. In words: TP_TRANSPORTER: increase in Calcein-AM intracellular accumulation (Calcein-AM: ? uM, Zimeldine: 100 uM) in MDR1-expressing MDCKII cells. The data set is classed as functional, cell-based. Conditions: dog, mdck-ii.
For data set [19] the target is unchanged. In words: TP_TRANSPORTER: increase in Calcein-AM intracellular accumulation (Calcein-AM: ? uM, Biperiden: 100 uM) in MDR1-expressing MDCKII cells. Conditions: dog, mdck-ii. The class given is functional, cell-based.
Data set [20] has the same target. The experiment in a line: TP_TRANSPORTER: increase in Calcein-AM intracellular accumulation (Calcein-AM: ? uM, Naltrexone: 100 uM) in MDR1-expressing MDCKII cells. The data set is classed as functional, cell-based. Conditions: dog, mdck-ii.
The target in data set [21] is T2, MDR1 (P-glycoprotein, ABCB1). In words: TP_TRANSPORTER: increase in Calcein-AM intracellular accumulation (Calcein-AM: ? uM, Chlorprothixene: 100 uM) in MDR1-expressing MDCKII cells. The class given is functional, cell-based, MDCK-II. Conditions: dog, probe Calcein-AM.
For data set [22] the target is unchanged. The experiment in a line: TP_TRANSPORTER: increase in Calcein-AM intracellular accumulation (Calcein-AM: ? uM, Clomipramine: 100 uM) in MDR1-expressing MDCKII cells. The class given is functional, cell-based, MDCK-II. Particulars: dog, probe Calcein-AM.
For data set [23] the target is unchanged. The experiment in a line: TP_TRANSPORTER: increase in Calcein-AM intracellular accumulation (Calcein-AM: ? uM, Haloperidol: 100 uM) in MDR1-expressing MDCKII cells. The class given is functional, cell-based, MDCK-II. Conditions: dog, probe Calcein-AM.
The target of data set [24] is T1, ATP-dependent translocase ABCB1. The experiment in a line: TP_TRANSPORTER: increase in Calcein-AM intracellular accumulation (Calcein-AM: ? uM, Nordazepam: 100 uM) in MDR1-expressing MDCKII cells. The data set is classed as functional, cell-based. Particulars: dog, mdck-ii.

The source of these data is ChEMBL document CHEMBL2074178, “Passive permeability and P-glycoprotein-mediated efflux differentiate central nervous system (CNS) and non-CNS marketed drugs” (J Pharmacol Exp Ther, 2002).

T2 sequence (P08183 whole entry): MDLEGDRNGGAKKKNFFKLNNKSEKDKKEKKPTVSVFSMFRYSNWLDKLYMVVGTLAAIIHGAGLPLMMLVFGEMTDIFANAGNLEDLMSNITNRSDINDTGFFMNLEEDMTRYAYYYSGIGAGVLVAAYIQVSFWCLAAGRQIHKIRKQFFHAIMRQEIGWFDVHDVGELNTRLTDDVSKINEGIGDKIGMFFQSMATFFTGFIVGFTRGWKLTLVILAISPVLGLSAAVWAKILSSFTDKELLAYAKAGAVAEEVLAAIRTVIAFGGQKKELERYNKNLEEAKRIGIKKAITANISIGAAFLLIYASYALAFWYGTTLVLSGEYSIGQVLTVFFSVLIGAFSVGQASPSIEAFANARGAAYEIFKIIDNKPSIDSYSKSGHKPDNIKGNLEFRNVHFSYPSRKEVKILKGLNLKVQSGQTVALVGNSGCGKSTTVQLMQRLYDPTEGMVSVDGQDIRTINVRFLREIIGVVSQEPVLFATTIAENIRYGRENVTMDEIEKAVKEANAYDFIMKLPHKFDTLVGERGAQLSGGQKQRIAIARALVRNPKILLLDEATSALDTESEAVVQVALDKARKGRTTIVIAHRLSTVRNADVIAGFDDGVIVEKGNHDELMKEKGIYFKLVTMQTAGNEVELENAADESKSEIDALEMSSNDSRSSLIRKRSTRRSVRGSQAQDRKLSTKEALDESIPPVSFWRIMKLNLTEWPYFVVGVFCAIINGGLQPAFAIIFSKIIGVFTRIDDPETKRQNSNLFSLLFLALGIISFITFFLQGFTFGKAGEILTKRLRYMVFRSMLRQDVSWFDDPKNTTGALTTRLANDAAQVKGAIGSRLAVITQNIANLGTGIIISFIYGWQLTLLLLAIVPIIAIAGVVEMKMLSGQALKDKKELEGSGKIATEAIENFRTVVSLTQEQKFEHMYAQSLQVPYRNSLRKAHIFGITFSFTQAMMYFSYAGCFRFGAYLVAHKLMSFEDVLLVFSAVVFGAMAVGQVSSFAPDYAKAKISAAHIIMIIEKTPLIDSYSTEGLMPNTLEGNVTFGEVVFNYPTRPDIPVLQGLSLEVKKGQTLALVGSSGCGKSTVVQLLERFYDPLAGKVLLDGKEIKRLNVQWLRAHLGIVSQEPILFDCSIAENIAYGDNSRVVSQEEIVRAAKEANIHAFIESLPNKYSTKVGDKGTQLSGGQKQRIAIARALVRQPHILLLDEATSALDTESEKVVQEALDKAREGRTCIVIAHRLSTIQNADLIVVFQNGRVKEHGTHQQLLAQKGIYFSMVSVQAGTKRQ
T1 sequence (P08183 whole entry): as above

For orientation: inhibition means how much of the control response was suppressed. On to `CN1C[C@H](CNC(=O)OCc2ccccc2)C[C@@H]2c3cccc4c3c(cn4C)C[C@H]21` [METERGOLINE], for which the Activity entry in data set [1] was “is not a substrate [-]”. In data set [2], the inhibition at 100 µM is 84.4%. Take `C#CCN(C)[C@H](C)Cc1ccccc1` [SELEGILINE]: the Activity entry in data set [1] is “is not a substrate [-]”; in data set [3], “is not an inhibitor [-]”. As for `CNS(=O)(=O)Cc1ccc2[nH]cc(CCN(C)C)c2c1`, the Activity entry is “is not a substrate [-]” in data set [1] and “is not an inhibitor [-]” in data set [4]. Turning to `CCN(CC)CCN1C(=O)CN=C(c2ccccc2F)c2cc(Cl)ccc21` [FLURAZEPAM], in [1], the Activity result is “is not a substrate [-]”. In addition, the inhibition at 100 µM in [5] is 22.6%. In the case of `Cc1ncc2n1-c1ccc(Cl)cc1C(c1ccccc1F)=NC2` [MIDAZOLAM], the Activity result in data set [1] was “is not a substrate [-]”. On to `CN(C)CCC=C1c2ccccc2COc2ccccc21` [DOXEPIN], for which the Activity result in [1] was “is not a substrate [-]”. Besides, the inhibition at 100 µM in data set [6] was 15.3%. Regarding `O=C1CC2(CCCC2)CC(=O)N1CCCCN1CCN(c2ncccn2)CC1` [BUSPIRONE], the Activity result in [1] was “is not a substrate [-]”. In addition, the inhibition at 100 µM in data set [7] is 24.1%. Turning to `O=C1CN=C(c2ccccc2)c2cc([N+](=O)[O-])ccc2N1` [NITRAZEPAM], the Activity entry in data set [1] is “is not a substrate [-]”; in data set [8], “is not an inhibitor [-]”.

For `CNC1(c2ccccc2Cl)CCCCC1=O` (stereo not given) [KETAMINE], the Activity entry was “is not a substrate [-]” in data set [1] and “is not an inhibitor [-]” in [9].

In the case of `CNCCCC12CCC(c3ccccc31)c1ccccc12` [MAPROTILINE], the Activity entry in data set [1] was “is not a substrate [-]”. The inhibition at 100 µM in data set [10] is 36.7%.

As for `CC(C)C[C@H]1C(=O)N2CCC[C@H]2[C@]2(O)O[C@](NC(=O)[C@@H]3C=C4c5cccc6[nH]c(Br)c(c56)C[C@H]4N(C)C3)(C(C)C)C(=O)N12` [BROMOCRIPTINE], the Activity entry in data set [1] is “is not a substrate [-]”. Regarding `CCCC(C)(COC(N)=O)COC(N)=O` [MEPROBAMATE], the Activity result in data set [1] is “is not a substrate [-]”; in data set [11], “is not an inhibitor [-]”. With `CNCCCN1c2ccccc2CCc2ccccc21` [DESIPRAMINE], the Activity result in [1] was “is not a substrate [-]”. For the same compound, in data set [12], the inhibition at 100 µM is 12.8%. Regarding `NC(=O)N1c2ccccc2C=Cc2ccccc21` [CARBAMAZEPINE], the values for the Activity entry in [1] and in data set [13] were “is not a substrate [-]” and “is not an inhibitor [-]”, respectively. In the case of `COCCCC/C(=N\OCCN)c1ccc(C(F)(F)F)cc1` [FLUVOXAMINE], the Activity entry in [1] was “is not a substrate [-]”. Further, the inhibition at 100 µM in [14] is 20.8%.

For the compound `CN(C)CCC=C1c2ccccc2CCc2ccccc21` [AMITRIPTYLINE], the Activity result in [1] is “is not a substrate [-]”. The inhibition at 100 µM in data set [15] is 25.5%. On to `CN(C)CCCN1c2ccccc2CCc2ccccc21` [IMIPRAMINE], for which the Activity entry was “is not a substrate [-]” in data set [1] and “is not an inhibitor [-]” in [16]. Consider `CCOC(=O)c1ncn2c1CN(C)C(=O)c1cc(F)ccc1-2` [FLUMAZENIL], for which the Activity entry was “is not a substrate [-]” in [1] and “is not an inhibitor [-]” in data set [17]. Take `CN(C)C/C=C(/c1ccc(Br)cc1)c1cccnc1` [ZIMELDINE]: the Activity result in [1] was “is not a substrate [-]”; in data set [18], “is not an inhibitor [-]”. Take `OC(CCN1CCCCC1)(c1ccccc1)C1CC2C=CC1C2` (stereo not given) [BIPERIDEN]: the Activity entry was “is not a substrate [-]” in [1] and “is not an inhibitor [-]” in [19]. Take `O=C1CC[C@@]2(O)[C@H]3Cc4ccc(O)c5c4[C@@]2(CCN3CC2CC2)[C@H]1O5` [NALTREXONE]: the Activity result in [1] is “is not a substrate [-]”; in data set [20], “is not an inhibitor [-]”. For `CN(C)CC/C=C1/c2ccccc2Sc2ccc(Cl)cc21` [CHLORPROTHIXENE], the Activity result in data set [1] was “is not a substrate [-]”. In addition, the inhibition at 100 µM in data set [21] was 57.5%. As to `CN(C)CCCN1c2ccccc2CCc2ccc(Cl)cc21` [CLOMIPRAMINE], in data set [1], the Activity result is “is not a substrate [-]”. Besides, the inhibition at 100 µM in data set [22] was 48.2%. In the case of `O=C(CCCN1CCC(O)(c2ccc(Cl)cc2)CC1)c1ccc(F)cc1` [HALOPERIDOL], in data set [1], the Activity result was “is not a substrate [-]”. Besides, the inhibition at 100 µM in data set [23] is 37.2%. As for `O=C1CN=C(c2ccccc2)c2cc(Cl)ccc2N1` [NORDAZEPAM], the results for the Activity result in [1] and in [24] were “is not a substrate [-]” and “is not an inhibitor [-]”, respectively. With `Nc1c2c(nc3ccccc13)CCCC2` [TACRINE], the Activity entry in [1] is “is not a substrate [-]”.

As for `C=CCN1CC[C@]23c4c5ccc(O)c4O[C@H]2C(=O)CC[C@@]3(O)[C@H]1C5` [NALOXONE], the Activity entry in data set [1] was “is not a substrate [-]”.
